Patent US20230172899A1, “CANNABINOID COMPOSITIONS” (priority 2020, published 2023)
pIC50: −log10 of the molar value. In brackets after ≈: the same amount, converted by molar mass. Read-outs that look alike come from different tables or passages of the source.

Experiments:
[1] = system: store-operated calcium entry (SOCE) in Jurkat T cells; assay: SOCE inhibition, Fura-2 Ca2+ bioassay, thapsigargin-induced, Jurkat cells; format: cell-based, human; conditions: for IC50: Homo sapiens, Jurkat; for Combinatory effect on SOCE inhibition when paired with CBGA: isobolographic analysis, pairs expected to inhibit 50%; for IC50 on SOCE relative to acidic variations: dose response 0 to 30 μM
[2] = system: store-operated calcium entry (SOCE) in U937 monocytes; assay: SOCE inhibition, Fura-2 Ca2+ bioassay, thapsigargin-induced, U937 cells; format: cell-based, human; conditions: Homo sapiens
[3] = system: store-operated calcium entry (SOCE) in Luva human mast cells; assay: SOCE inhibition, Fura-2 Ca2+ bioassay, thapsigargin-induced, Luva cells; format: cell-based; conditions: Homo sapiens, Mast cell, read-out: IC50 SOCE Luva
[4] = system: store-operated calcium entry (SOCE) in RBL-2H3 rat mast cells; assay: SOCE inhibition, Fura-2 Ca2+ bioassay, thapsigargin-induced, RBL-2H3 cells; format: cell-based; conditions: Rattus norvegicus
[5] = system: store-operated calcium entry (SOCE) in HEK293 cells; assay: SOCE inhibition, Fura-2 Ca2+ bioassay, thapsigargin-induced, HEK293 cells; format: cell-based, human; conditions: for IC50: Homo sapiens
[6] = system: store-operated calcium entry (SOCE) in THP-1 cells; assay: SOCE inhibition, combinatory (isobolographic) analysis, THP-1 cells; format: cell-based, human; conditions: for Combinatory effect on SOCE inhibition when paired with CBGA: THP-1 cells, isobolographic analysis, pairs expected to inhibit 50%; for pIC50: Homo sapiens, THP-1, read-out: SOCE IC50
Method: Bar graphs shown in FIGS. 10A-10Z and 10BB display SOCE amplitudes calculated from area under the curve (AUC) of the SOCE signals and normalized to SOCE in the presence of gadolinium. Combinatory effects were assessed using an isobolographic analysis approach, where CBGA was paired with another cannabinoid using concentrations of CBGA corresponding to 50%, 40%, 30%, 20%, 10%, and 0% inhibition (as derived from the IC50 curves of FIGS. 9A-9P) and combined with concentrations of the paired cannabinoid, so that each combination would be expected to inhibit 50% of the Ca^2+ signal (e.g., the CBGA concentration causing 50% inhibition was tested alone without the other cannabinoid, the CBGA concentration expected to block 40% of the signal was combined with the concentration of the other cannabinoid expected to inhibit 10%, the CBGA concentration expected to block 30% of the signal was combined with the concentration of the other cannabinoid expected to inhibit 20%, and so on). Simple additivity of cannabinoid pairs would be expected to inhibit the Ca^2+ signal by 50%. All the data in these experiments represent an average of 3 independent runs and the values are graphed as mean values±SEM.

[7] = system: store-operated calcium entry (SOCE) in THP-1 cells; assay: as above; format: cell-based, human; conditions: 10 μM cannabinoid plus 2.2 μM CBGA
[8] = system: store-operated calcium entry (SOCE) in various cell types; assay: Thapsigargin-induced SOCE Fura-2 bioassay across various cell types; format: cell-based; conditions: 1 μM; positive control; Jurkat, U937, Luva, RBL-2H3, HL-60, HEK-293
Method: A Fura-2 calcium flux assay was used to determine cytoplasmic Ca^2+ levels. Briefly, cells were preloaded with Fura-2 AM, and fluorescence intensity in cells intensity was measured over time as a ratio of detected 510 nm fluorescent light emission intensity when excited by UV light at 340 nm and 380 nm wavelengths (f340/f380 ratio). Gadolinium (Gd^3+) is known to block SOCE at a concentration of 1 μM and was used at 1 μM as a positive control in these experiments (gray line).
FIGS. 11TT-11-XX show dose-response curves for hemp varieties on store-operated calcium entry (SOCE) induced by thapsigargin in HEK-293, Jurkat, U937, LUVA, and RBL-2H3 cells. Hemp extracts (cold extracted and unheated) were tested at 6 different doses from 1 to 50 μg/ml. The effects on SOCE amplitude were plotted in a dose-dependent manner to determine the IC50 for each tested compound (see Table 6 for determined IC50 values). All data are averages of three independent runs±SEM. Tested hemp varieties were: Otto-18, Harlequin (HAR), and BOAX.
The general extraction method of Example 6 was carried out, and hemp extracts were subjected to heat treatment prior to testing for activity in the SOCE assay. In some instances, unheated and heated hemp extracts were combined prior to activity testing in the SOCE assay.

[9] = read-out: IC50 SOCE Jurkat, Table 5, individual cannabinoids
[10] = U-937, read-out: IC50 SOCE U937, Table 5, individual cannabinoids, U937
[11] = RBL-2H3, read-out: IC50 SOCE RBL-2H3, Table 5, individual cannabinoids, RBL-2H3
[12] = HEK293, read-out: IC50 SOCE HEK-293, Table 5, individual cannabinoids, HEK-293
[13] = U-937, read-out: IC50 SOCE U937
[14] = RBL-2H3, read-out: IC50 SOCE RBL-2H3
[15] = HEK293, read-out: IC50 SOCE HEK-293

| Compound | IC50 [1, 9] [µg/mL] | Combinatory effect on SOCE inhibition when paired with CBGA ([1]; Jurkat cells) | IC50 [2, 10] [µg/mL] | IC50 [3] [µg/mL] | IC50 [4, 11] [µg/mL] | IC50 [5, 12] [µg/mL] | Combinatory effect on SOCE inhibition when paired with CBGA [6] | IC50 on SOCE relative to acidic variations ([1]; Jurkat cells) | pIC50 [6] | Combinatory effect when paired with 2.2 μM CBGA [7] | Inhibitory effect in immune cells compared with non-immune HEK293 cells ([5]; Jurkat vs HEK293 screening, 10 μM) | IC50 ([1]; read-out: IC50 SOCE Jurkat) [µg/mL] | Effect on SOCE (Ca2+ signals), pure compounds ([1]; Jurkat cells, compounds at 10 μM, 1 μM thapsigargin) | IC50 [2, 13] [µg/mL] | IC50 [4, 14] [µg/mL] | IC50 [5, 15] [µg/mL] | Effect on thapsigargin-induced SOCE (f340/f380 ratio) [8] |
| --- | --- | --- | --- | --- | --- | --- | --- | --- | --- | --- | --- | --- | --- | --- | --- | --- | --- |
| CCCCCc1cc2c(c(O)c1C(=O)O)-c1cc(C)ccc1C(C)(C)O2 [CBNA, 1-hydroxy-6,6,9-trimethyl-3-pentyl-6H-benzo[c]chromene-2-carboxylic acid] | 0.99 (≈ 2.79 µM) | Simple additive behavior | 19.2 (≈ 54.1 µM) | 7.25 (≈ 20.5 µM) | > 50 | 22.5 (≈ 63.5 µM) | sub-additive combinatory effects |  |  |  |  |  |  |  |  |  |  |
| CCCc1cc2c(c(O)c1C(=O)O)[C@@H]1C=C(C)CC[C@H]1C(C)(C)O2 [THCVA, (6aR,10aR)-1-hydroxy-6,6,9-trimethyl-3-propyl-6a,7,8,10a-tetrahydro-6H-benzo[c]chromene-2-carboxylic acid] | 0.633 (≈ 1.92 µM) | stronger than predicted inhibitions | 20.2 (≈ 61 µM) | 9.43 (≈ 28.5 µM) | 20.2 (≈ 61.2 µM) | 21.3 (≈ 64.6 µM) | sub-additive combinatory effects |  |  |  |  |  |  |  |  |  |  |
| CCCc1cc(O)c(C/C=C(\C)CCC=C(C)C)c(O)c1C(=O)O [CBGVA, (E)-3-(3,7-dimethylocta-2,6-dien-1-yl)-2,4-dihydroxy-6-propylbenzoic acid] | 1.15 (≈ 3.46 µM) | Simple additive behavior | 2.86 (≈ 8.6 µM) | 2.6 (≈ 7.82 µM) | 2.53 (≈ 7.61 µM) | 4.15 (≈ 12.5 µM) | sub-additive combinatory effects |  |  |  |  |  |  |  |  |  |  |
| CCCCCc1cc(O)c(C/C=C(\C)CCC=C(C)C)c(O)c1 [CBG, (E)-2-(3,7-dimethylocta-2,6-dien-1-yl)-5-pentylbenzene-1,3-diol] | 2.36 (≈ 7.46 µM) | stronger than predicted inhibitions | 33.5 (≈ 106 µM) | 33.6 (≈ 106 µM) | 3.29 (≈ 10.4 µM) | > 50 |  | higher IC50 than their acidic variations | < 4.52 | simple additive agonists |  |  |  |  |  |  |  |
| C=C(C)[C@@H]1CCC(C)=C[C@H]1c1c(O)cc(CCCCC)c(C(=O)O)c1O [CBDA, (1′R,2′R)-2,6-dihydroxy-5′-methyl-4-pentyl-2′-(prop-1-en-2-yl)-1′,2′,3′,4′-tetrahydro-[1,1′-biphenyl]-3-carboxylic acid] | 4.07 (≈ 11.4 µM) | inhibit less than predicted | 5.83 (≈ 16.3 µM) | 5.17 (≈ 14.4 µM) | 2.4 (≈ 6.69 µM) | 16.1 (≈ 45 µM) | sub-additive combinatory effects |  |  |  | selective |  |  |  |  |  |  |
| C=C(C)[C@@H]1CCC(C)=C[C@H]1c1c(O)cc(CCCCC)cc1O [CBD, (1′R,2′R)-5′-methyl-4-pentyl-2′-(prop-1-en-2-yl)-1′,2′,3′,4′-tetrahydro-[1,1′-biphenyl]-2,6-diol] |  | Simple additive behavior |  | > 50 | 2.53 (≈ 8.05 µM) | > 50 |  | higher IC50 than their acidic variations | < 4.52 | sub-additive |  | 7.42 (≈ 23.6 µM) | low to no effects | > 50 |  |  |  |
| CCCc1cc(O)c(C/C=C(\C)CCC=C(C)C)c(O)c1 [CBGV, (E)-2-(3,7-dimethylocta-2,6-dien-1-yl)-5-propylbenzene-1,3-diol] |  | stronger than predicted inhibitions |  | 40.7 (≈ 141 µM) |  |  |  |  | < 4.52 | simple additive agonists |  | 5.27 (≈ 18.3 µM) |  | 14.5 (≈ 50.3 µM) | 6.46 (≈ 22.4 µM) | 30.9 (≈ 107 µM) |  |
| CCCCCc1cc(O)c2c(c1)OC(C)(C)[C@@H]1CC=C(C)C[C@@H]21 [Δ8-THC, (6aR,10aR)-6,6,9-trimethyl-3-pentyl-6a,7,10,10a-tetrahydro-6H-benzo[c]chromen-1-ol] | 14.2 (≈ 45.1 µM) | inhibit less than predicted | > 50 | > 50 | 39.7 (≈ 126 µM) | > 50 |  |  | < 4.52 | sub-additive |  |  |  |  |  |  |  |
| CCCCCc1cc2c(c(O)c1C(=O)O)[C@@H]1C=C(C)CC[C@H]1C(C)(C)O2 [THCA, (6aR,10aR)-1-hydroxy-6,6,9-trimethyl-3-pentyl-6a,7,8,10a-tetrahydro-6H-benzo[c]chromene-2-carboxylic acid] | 2.23 (≈ 6.22 µM) | Simple additive behavior | 8.1 (≈ 22.6 µM) | 10.4 (≈ 29 µM) | 0.57 (≈ 1.59 µM) | 17.5 (≈ 48.9 µM) | sub-additive combinatory effects |  |  |  |  |  |  |  |  |  |  |
| CCCCCc1cc2c(c(O)c1C(=O)O)[C@@H]1[C@H]3C(CC[C@@]3(C)O2)C1(C)C (stereo partly drawn) [CBLA, (1aS,1a1R,3aR,8bR)-8-hydroxy-1,1,3a-trimethyl-6-pentyl-1a,1a1,2,3,3a,8b-hexahydro-1H-4-oxabenzo[f]cyclobuta[cd] indene-7-carboxylic acid] |  | inhibit less than predicted |  | 12.4 (≈ 34.5 µM) |  |  |  |  |  |  |  | 9.29 (≈ 25.9 µM) |  | 28.3 (≈ 79 µM) | 20.9 (≈ 58.2 µM) | > 50 |  |
| C=C(C)c1ccc(C)cc1-c1c(O)cc(CCCCC)cc1O [CBND, 5′-methyl-4-pentyl-2′-(prop-1-en-2-yl)-[1,1′-biphenyl]-2,6-diol] | 6.7 (≈ 21.6 µM) | Simple additive behavior | 24 (≈ 77.3 µM) | > 50 | 19 (≈ 61.2 µM) | 32.8 (≈ 106 µM) |  |  |  |  |  |  |  |  |  |  |  |
| [Cl][Gd]([Cl])[Cl] [Gd^3+, Gadolinium Chloride] |  |  |  |  |  |  |  |  |  |  |  |  |  |  |  |  | inhibited SOCE |
| CCCCCc1cc(O)c2c(c1)OC(C)(C)c1ccc(C)cc1-2 [CBN, 6,6,9-trimethyl-3-pentyl-6H-benzo[c]chromen-1-ol] | 9.09 (≈ 29.3 µM) | Simple additive behavior | 45.3 (≈ 146 µM) | > 50 | 33.4 (≈ 108 µM) | 42.6 (≈ 137 µM) |  |  | < 4.52 | simple additive agonists |  |  |  |  |  |  |  |
